Among the targets are BTK (Homo sapiens, UniProt Q06187); EGFR(L861Q) (Homo sapiens, UniProt P00533, L861Q); PRKCI (Homo sapiens, UniProt P41743); ITK (Homo sapiens, UniProt Q08881); MAP3K1 (Homo sapiens, UniProt Q13233); PRKD3 (Homo sapiens, UniProt O94806); CSNK2A1 (Homo sapiens, UniProt P68400); ALK(L1196M) (Homo sapiens, UniProt Q9UM73, L1196M); ACVR1 (Homo sapiens, UniProt Q04771); ROCK2 (Homo sapiens, UniProt O75116); MARK1 (Homo sapiens, UniProt Q9P0L2).

Common to all, as to test: biochemical
What all share (design): DiscoverX kinase panel, active-site competition binding (KINOMEscan type), percent of control at one concentration
What all share (conditions): competition binding, percent of control

Test [1] concerns the target EGFR(L747-S752del, P753S) (Homo sapiens, UniProt P00533, DEL747-752/P753S).
Another test concerns the target T1, TRKA (Homo sapiens, UniProt P04629).
T1 construct: gene NTRK1

For the next test, the target named is T2, PIP5K2C (Homo sapiens, UniProt Q8TBX8).
T2 construct: gene PIP4K2C
T2 sequence (Q8TBX8 whole entry): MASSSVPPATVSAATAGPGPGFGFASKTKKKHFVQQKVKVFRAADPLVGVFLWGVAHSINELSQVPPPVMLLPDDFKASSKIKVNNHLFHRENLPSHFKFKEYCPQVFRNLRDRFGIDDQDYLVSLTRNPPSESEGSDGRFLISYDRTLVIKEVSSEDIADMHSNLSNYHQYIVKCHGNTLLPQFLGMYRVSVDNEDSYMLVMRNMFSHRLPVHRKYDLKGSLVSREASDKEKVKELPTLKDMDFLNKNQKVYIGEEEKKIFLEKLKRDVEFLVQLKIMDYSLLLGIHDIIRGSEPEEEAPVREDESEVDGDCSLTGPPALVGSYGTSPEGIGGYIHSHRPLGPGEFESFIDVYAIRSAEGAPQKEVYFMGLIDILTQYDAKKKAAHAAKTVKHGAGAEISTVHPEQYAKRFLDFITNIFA

The target in a further test is T3, PCTK1 (Homo sapiens, UniProt Q00536).
T3 construct: gene CDK16
T3 sequence (Q00536 whole entry): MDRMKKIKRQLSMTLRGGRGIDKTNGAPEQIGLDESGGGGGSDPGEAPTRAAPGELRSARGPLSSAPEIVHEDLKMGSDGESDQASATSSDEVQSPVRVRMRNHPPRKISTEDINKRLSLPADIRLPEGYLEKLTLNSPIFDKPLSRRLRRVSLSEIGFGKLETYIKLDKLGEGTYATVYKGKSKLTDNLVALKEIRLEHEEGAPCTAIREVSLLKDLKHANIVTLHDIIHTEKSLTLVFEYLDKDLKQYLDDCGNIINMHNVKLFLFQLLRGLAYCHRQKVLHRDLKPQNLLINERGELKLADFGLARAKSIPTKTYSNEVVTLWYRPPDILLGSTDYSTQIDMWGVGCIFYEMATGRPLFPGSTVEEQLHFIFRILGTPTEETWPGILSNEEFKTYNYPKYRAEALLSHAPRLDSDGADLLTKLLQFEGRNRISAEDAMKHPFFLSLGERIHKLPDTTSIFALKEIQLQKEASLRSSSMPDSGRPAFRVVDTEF

Another test concerns the target T4, JNK3 (Homo sapiens, UniProt P53779).
T4 construct: gene MAPK10

The next test has as its target T5, NDR1 (Homo sapiens, UniProt Q15208).
T5 construct: gene STK38

The target of another test is T6, ERK5 (Homo sapiens, UniProt Q13164).
T6 construct: gene MAPK7

Another test concerns the target T7, IKK-beta (Homo sapiens, UniProt O14920).
T7 construct: gene IKBKB

Test [2] addresses T8, ABL1(F317I)-nonphosphorylated (Homo sapiens, UniProt P00519, F317I).
T8 construct: nonphosphorylated

The target of test [3] is T9, TYK2(JH1domain-catalytic) (Homo sapiens, UniProt P29597).
T9 construct: JH1domain-catalytic
T9 sequence (P29597 whole entry): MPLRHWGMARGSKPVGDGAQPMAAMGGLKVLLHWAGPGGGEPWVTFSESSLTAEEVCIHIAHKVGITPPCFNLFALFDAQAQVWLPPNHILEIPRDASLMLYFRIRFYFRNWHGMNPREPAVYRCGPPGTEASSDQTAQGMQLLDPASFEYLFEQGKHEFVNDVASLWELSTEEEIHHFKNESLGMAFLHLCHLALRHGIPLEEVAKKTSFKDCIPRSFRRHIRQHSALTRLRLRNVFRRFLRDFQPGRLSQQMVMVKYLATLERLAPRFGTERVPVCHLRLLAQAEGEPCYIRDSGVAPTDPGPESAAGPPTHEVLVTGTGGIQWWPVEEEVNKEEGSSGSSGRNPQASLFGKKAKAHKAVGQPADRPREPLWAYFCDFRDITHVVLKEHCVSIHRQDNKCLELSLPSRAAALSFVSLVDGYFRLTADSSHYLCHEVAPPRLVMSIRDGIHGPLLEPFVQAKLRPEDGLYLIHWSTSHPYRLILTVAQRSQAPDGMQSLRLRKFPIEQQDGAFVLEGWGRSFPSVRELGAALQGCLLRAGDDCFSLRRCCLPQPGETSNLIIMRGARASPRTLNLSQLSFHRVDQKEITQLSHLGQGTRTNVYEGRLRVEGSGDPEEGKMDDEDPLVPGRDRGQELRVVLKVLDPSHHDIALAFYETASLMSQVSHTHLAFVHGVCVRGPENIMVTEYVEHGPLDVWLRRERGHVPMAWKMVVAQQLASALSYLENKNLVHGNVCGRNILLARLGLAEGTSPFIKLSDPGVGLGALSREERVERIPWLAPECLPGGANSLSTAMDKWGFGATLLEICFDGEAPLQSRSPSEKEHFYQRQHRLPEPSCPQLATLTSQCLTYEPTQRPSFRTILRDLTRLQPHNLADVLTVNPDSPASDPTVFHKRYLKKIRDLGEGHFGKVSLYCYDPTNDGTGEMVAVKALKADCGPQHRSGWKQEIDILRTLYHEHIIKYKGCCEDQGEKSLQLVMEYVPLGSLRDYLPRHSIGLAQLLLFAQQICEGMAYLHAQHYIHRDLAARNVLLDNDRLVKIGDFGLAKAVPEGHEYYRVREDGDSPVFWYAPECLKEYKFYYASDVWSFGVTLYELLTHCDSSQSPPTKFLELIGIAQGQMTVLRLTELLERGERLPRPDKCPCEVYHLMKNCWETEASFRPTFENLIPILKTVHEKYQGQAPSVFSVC

We go through one molecule from article PMC7206119, “RIP1 inhibition blocks inflammatory diseases but not tumor growth or metastases” (Cell Death and Differentiation, 2019).

PRKCI, sequence (P41743 whole entry): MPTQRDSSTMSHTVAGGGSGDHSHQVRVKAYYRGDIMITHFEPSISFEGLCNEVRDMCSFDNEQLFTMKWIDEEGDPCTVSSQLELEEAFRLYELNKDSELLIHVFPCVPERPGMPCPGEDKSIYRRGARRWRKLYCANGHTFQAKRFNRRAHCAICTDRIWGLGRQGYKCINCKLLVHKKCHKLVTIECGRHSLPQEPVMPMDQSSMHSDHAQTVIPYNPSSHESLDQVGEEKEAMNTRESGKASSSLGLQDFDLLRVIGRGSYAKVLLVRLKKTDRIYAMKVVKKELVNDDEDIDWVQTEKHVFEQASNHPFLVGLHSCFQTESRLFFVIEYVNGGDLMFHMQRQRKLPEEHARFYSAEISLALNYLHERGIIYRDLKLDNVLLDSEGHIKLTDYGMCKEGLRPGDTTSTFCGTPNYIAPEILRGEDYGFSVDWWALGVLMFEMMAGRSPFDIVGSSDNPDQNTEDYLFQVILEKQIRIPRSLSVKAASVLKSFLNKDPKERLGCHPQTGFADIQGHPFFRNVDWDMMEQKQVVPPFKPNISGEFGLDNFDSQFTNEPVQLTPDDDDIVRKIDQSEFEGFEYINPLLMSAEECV
MARK1, sequence (Q9P0L2 whole entry): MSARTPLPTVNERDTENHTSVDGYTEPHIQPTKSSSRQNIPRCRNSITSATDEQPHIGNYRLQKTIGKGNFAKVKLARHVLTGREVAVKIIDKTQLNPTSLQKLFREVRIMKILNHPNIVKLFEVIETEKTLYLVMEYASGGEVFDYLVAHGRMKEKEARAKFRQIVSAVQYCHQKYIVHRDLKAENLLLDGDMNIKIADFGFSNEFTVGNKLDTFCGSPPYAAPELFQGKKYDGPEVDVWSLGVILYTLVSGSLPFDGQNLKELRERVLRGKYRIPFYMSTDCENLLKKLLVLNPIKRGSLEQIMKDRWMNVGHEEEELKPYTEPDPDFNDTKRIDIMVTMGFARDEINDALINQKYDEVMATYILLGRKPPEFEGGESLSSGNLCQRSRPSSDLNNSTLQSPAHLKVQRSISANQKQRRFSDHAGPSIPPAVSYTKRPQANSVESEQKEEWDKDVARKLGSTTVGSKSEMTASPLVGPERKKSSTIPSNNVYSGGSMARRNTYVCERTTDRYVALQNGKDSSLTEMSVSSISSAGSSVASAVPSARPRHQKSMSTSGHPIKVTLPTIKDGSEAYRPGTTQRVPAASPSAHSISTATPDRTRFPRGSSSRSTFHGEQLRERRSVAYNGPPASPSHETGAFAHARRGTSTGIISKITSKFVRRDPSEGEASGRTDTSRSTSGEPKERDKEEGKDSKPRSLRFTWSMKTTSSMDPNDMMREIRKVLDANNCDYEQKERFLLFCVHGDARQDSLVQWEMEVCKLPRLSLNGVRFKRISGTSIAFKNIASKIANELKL
BTK, sequence (Q06187 whole entry): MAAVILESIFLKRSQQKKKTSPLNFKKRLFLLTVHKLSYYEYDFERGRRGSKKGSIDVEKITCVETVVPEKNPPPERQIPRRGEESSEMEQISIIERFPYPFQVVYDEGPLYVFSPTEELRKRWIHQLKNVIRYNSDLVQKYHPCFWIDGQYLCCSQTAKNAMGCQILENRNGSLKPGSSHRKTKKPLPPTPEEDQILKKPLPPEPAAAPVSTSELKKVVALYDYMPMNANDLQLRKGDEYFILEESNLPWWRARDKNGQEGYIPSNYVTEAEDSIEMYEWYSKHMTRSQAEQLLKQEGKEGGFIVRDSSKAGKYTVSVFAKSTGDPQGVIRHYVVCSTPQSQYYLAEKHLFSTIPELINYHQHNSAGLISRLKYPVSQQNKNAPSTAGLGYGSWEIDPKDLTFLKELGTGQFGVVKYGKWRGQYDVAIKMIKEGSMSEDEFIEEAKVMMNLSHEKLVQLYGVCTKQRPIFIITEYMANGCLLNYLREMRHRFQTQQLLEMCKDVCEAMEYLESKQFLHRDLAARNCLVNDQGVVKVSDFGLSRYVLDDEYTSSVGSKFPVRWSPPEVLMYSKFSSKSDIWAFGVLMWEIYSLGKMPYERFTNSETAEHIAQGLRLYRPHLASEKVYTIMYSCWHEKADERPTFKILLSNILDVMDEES
T4 sequence (P53779 whole entry): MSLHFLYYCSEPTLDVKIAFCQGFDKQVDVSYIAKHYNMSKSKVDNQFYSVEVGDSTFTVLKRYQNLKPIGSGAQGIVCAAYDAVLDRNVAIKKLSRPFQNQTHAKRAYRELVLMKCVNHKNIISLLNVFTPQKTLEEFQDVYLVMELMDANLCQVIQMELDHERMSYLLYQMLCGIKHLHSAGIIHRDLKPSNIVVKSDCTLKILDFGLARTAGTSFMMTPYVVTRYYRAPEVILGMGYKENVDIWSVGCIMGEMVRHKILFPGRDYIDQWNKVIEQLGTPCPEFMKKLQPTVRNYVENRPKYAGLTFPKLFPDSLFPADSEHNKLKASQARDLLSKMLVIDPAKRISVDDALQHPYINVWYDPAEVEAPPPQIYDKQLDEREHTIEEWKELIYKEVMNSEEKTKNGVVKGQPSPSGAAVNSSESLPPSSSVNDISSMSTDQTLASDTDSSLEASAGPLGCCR
CSNK2A1, sequence (P68400 whole entry): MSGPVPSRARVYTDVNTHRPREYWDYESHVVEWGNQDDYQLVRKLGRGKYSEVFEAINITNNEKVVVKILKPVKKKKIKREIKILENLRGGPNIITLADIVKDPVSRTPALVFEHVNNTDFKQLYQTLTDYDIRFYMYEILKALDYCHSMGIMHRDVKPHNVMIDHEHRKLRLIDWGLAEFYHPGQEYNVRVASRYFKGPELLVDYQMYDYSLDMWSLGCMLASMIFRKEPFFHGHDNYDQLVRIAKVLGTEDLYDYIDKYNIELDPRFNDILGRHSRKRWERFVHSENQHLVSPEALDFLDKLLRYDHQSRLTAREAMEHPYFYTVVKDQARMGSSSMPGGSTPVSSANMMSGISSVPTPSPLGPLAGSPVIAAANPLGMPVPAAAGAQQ

In the case of `COc1cc2c(cn1)N(C)C(=O)[C@@H](NC(=O)c1nc3n(n1)[C@H](c1ccccc1)CC3)CC2` [GNE684, (S)-N-((S)-7-methoxy-1-methyl-2-oxo-2,3,4,5-tetrahydro-1H-pyrido[3,4-b]azepin-3-yl)-5-phenyl-6,7-dihydro-5H-pyrrolo[1,2-b][1,2,4]triazole-2-carboxamide], the remaining binding at 10 µM in test [1] came out at 100%; at BTK it was 100%; at TRKA it was 87%; at EGFR(L861Q), 96%; at PIP5K2C it was 76%; on PCTK1, 82%. Further, the remaining binding at 10 µM on PRKCI is 95%; on JNK3, 98%; on ITK it was 100%; on NDR1, 79%; at MAP3K1, 90%; at PRKD3, 100%. Moreover, the remaining binding at 10 µM turned out to be 85% on ERK5; 93% on CSNK2A1; 78% at ALK(L1196M); 100% on IKK-beta; 100% on ACVR1; 97% in test [2]. The remaining binding at 10 µM in [3] turned out to be 100%; at ROCK2, 100%; at MARK1, 69%.
